# From ChEMBL document CHEMBL4507256 (2021)
# Experiments:
# [1] = target: Ribosomal protein S6 kinase alpha-3 (Homo sapiens) (UniProt P51812); conditions: Compound concentration 1000.0 nM
# [2] = target: Wee1-like protein kinase (Homo sapiens) (UniProt P30291); conditions: Compound concentration 1000.0 nM
# [3] = target: Serine/threonine-protein kinase WNK3 (Homo sapiens) (UniProt Q9BYP7); conditions: Compound concentration 1000.0 nM
# [4] = target: Vascular endothelial growth factor receptor 1 (Homo sapiens) (UniProt P17948); conditions: Compound concentration 1000.0 nM
# [5] = target: Serine/threonine-protein kinase MAK (Homo sapiens) (UniProt P20794); conditions: Compound concentration 1000.0 nM
# [6] = target: Cyclin-dependent kinase 7 (Homo sapiens) (UniProt P50613); conditions: Compound concentration 1000.0 nM
# [7] = target: Serine/threonine-protein kinase PLK4 (Homo sapiens) (UniProt O00444); conditions: Compound concentration 1000.0 nM
# [8] = target: Serine/threonine-protein kinase ULK3 (Homo sapiens) (UniProt Q6PHR2); conditions: Compound concentration 1000.0 nM
# [9] = target: Tyrosine-protein kinase BTK (Homo sapiens) (UniProt Q06187); conditions: Compound concentration 1000.0 nM
# [10] = target: Serine/threonine-protein kinase 16 (Homo sapiens) (UniProt O75716); conditions: Compound concentration 1000.0 nM
# [11] = target: Serine/threonine-protein kinase B-raf (Homo sapiens) (UniProt P15056); conditions: Compound concentration 1000.0 nM
# [12] = test system: Phosphatidylinositol 4,5-bisphosphate 3-kinase catalytic subunit alpha isoform (Homo sapiens), P42336 [Q546K]; conditions: Compound concentration 1000.0 nM
# [13] = target: TGF-beta receptor type-2 (Homo sapiens) (UniProt P37173); conditions: Compound concentration 1000.0 nM
# [14] = test system: Epidermal growth factor receptor (Homo sapiens), P00533 [UNDEFINED MUTATION]; conditions: Compound concentration 1000.0 nM
# [15] = test system: Mast/stem cell growth factor receptor Kit (Homo sapiens), P10721 [A829P]; conditions: Compound concentration 1000.0 nM
# [16] = target: T1, D(4) dopamine receptor (Homo sapiens) (UniProt P21917); conditions: Compound concentration 10.0 uM
# T1 sequence (whole entry): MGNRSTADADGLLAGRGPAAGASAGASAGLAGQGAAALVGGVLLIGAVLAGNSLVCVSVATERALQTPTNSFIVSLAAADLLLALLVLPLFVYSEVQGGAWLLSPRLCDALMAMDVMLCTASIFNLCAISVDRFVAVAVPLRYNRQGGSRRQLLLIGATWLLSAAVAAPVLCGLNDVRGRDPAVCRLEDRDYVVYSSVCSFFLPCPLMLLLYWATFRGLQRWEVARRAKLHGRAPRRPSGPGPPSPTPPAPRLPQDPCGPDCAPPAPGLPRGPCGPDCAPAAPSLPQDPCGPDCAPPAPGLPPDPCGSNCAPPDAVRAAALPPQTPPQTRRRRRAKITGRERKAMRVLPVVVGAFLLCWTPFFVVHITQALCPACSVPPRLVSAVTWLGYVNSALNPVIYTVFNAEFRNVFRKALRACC
# [17] = target: Leucine-rich repeat serine/threonine-protein kinase 2 (Homo sapiens) (UniProt Q5S007); conditions: Compound concentration 1000.0 nM
# [18] = target: cAMP-dependent protein kinase catalytic subunit alpha (Homo sapiens) (UniProt P17612); conditions: Compound concentration 1000.0 nM
# [19] = target: Serine/threonine-protein kinase 24 (Homo sapiens) (UniProt Q9Y6E0); conditions: Compound concentration 1000.0 nM
# [20] = test system: Leucine-rich repeat serine/threonine-protein kinase 2 (Homo sapiens), Q5S007 [G2019S]; conditions: Compound concentration 1000.0 nM
# [21] = target: Tyrosine-protein kinase HCK (Homo sapiens) (UniProt P08631); conditions: Compound concentration 1000.0 nM
# [22] = test system: Phosphatidylinositol 4,5-bisphosphate 3-kinase catalytic subunit alpha isoform (Homo sapiens), P42336 [E542K]; conditions: Compound concentration 1000.0 nM
# [23] = target: Serine/threonine-protein kinase PAK 5 (Homo sapiens) (UniProt Q9P286); conditions: Compound concentration 1000.0 nM
# [24] = target: Serine/threonine-protein kinase PknB (Mycobacterium tuberculosis) (UniProt P9WI81); conditions: Compound concentration 1000.0 nM
# [25] = test system: Receptor-type tyrosine-protein kinase FLT3 (Homo sapiens), P36888 [D835Y]; conditions: Compound concentration 1000.0 nM
# [26] = target: Ribosomal protein S6 kinase alpha-5 (Homo sapiens) (UniProt O75582); conditions: Compound concentration 1000.0 nM
# [27] = target: Tyrosine-protein kinase ABL1 (Homo sapiens) (UniProt P00519); conditions: Compound concentration 1000.0 nM
# [28] = target: Serine/threonine-protein kinase 32B (Homo sapiens) (UniProt Q9NY57); conditions: Compound concentration 1000.0 nM
# [29] = target: Serine/threonine-protein kinase Nek4 (Homo sapiens) (UniProt P51957); conditions: Compound concentration 1000.0 nM
# [30] = target: Glycogen synthase kinase-3 alpha (Homo sapiens) (UniProt P49840); conditions: Compound concentration 1000.0 nM
# [31] = target: Serine/threonine-protein kinase Nek10 (Homo sapiens) (UniProt Q6ZWH5); conditions: Compound concentration 1000.0 nM
# [32] = target: Epidermal growth factor receptor (Homo sapiens) (UniProt P00533); conditions: Compound concentration 1000.0 nM
# [33] = target: Mitogen-activated protein kinase kinase kinase 6 (Homo sapiens) (UniProt O95382); conditions: Compound concentration 1000.0 nM
# [34] = target: Mitogen-activated protein kinase kinase kinase 14 (Homo sapiens) (UniProt Q99558); conditions: Compound concentration 1000.0 nM
# [35] = target: Calcium/calmodulin-dependent protein kinase type 1G (Homo sapiens) (UniProt Q96NX5); conditions: Compound concentration 1000.0 nM
# [36] = target: Phosphatidylinositol 4-phosphate 3-kinase C2 domain-containing subunit beta (Homo sapiens) (UniProt O00750); conditions: Compound concentration 1000.0 nM
# [37] = test system: Epidermal growth factor receptor (Homo sapiens), P00533 [UNDEFINED MUTATION]; conditions: Compound concentration 1000.0 nM; remark: listed apart in the source
# [38] = target: Beta-2 adrenergic receptor (Homo sapiens) (UniProt P07550); conditions: Compound concentration 10.0 uM
# [39] = target: Delta-type opioid receptor (Homo sapiens) (UniProt P41143); conditions: Compound concentration 10.0 uM
# Sequence of Epidermal growth factor receptor (Homo sapiens), P00533 [UNDEFINED MUTATION] (P00533 whole entry, looked up, stated change not applied): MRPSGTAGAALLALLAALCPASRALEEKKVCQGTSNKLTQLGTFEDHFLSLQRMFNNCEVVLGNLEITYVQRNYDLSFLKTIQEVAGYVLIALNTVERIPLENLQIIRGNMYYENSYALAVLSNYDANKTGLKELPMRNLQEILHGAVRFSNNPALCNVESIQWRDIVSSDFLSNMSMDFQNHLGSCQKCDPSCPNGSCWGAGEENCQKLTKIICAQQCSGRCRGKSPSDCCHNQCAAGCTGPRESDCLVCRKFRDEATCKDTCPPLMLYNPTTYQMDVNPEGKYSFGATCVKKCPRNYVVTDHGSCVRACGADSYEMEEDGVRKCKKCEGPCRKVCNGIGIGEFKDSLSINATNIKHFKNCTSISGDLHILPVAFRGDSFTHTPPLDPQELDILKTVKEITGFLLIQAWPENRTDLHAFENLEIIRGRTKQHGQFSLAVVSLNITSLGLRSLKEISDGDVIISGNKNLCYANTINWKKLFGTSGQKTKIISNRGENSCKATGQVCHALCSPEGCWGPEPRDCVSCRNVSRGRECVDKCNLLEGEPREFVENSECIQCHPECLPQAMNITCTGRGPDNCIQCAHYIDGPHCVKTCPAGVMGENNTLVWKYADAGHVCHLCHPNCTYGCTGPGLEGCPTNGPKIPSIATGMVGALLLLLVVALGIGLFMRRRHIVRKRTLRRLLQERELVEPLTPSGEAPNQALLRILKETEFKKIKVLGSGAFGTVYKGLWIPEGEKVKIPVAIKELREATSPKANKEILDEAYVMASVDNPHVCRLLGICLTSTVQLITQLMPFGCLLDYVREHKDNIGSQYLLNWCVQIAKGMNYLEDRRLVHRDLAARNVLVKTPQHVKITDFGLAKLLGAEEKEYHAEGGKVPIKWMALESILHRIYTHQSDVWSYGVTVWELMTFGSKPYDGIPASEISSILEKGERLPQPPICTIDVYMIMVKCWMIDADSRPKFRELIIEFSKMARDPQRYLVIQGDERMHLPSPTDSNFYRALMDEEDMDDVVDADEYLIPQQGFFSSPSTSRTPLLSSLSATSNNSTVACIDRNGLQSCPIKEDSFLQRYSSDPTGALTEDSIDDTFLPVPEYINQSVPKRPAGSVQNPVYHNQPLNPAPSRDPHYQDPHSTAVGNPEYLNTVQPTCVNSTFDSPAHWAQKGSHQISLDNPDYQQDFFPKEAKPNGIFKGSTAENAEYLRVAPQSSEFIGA
# Sequence of Phosphatidylinositol 4,5-bisphosphate 3-kinase catalytic subunit alpha isoform (Homo sapiens), P42336 [E542K] (P42336 whole entry E542K, canonical isoform): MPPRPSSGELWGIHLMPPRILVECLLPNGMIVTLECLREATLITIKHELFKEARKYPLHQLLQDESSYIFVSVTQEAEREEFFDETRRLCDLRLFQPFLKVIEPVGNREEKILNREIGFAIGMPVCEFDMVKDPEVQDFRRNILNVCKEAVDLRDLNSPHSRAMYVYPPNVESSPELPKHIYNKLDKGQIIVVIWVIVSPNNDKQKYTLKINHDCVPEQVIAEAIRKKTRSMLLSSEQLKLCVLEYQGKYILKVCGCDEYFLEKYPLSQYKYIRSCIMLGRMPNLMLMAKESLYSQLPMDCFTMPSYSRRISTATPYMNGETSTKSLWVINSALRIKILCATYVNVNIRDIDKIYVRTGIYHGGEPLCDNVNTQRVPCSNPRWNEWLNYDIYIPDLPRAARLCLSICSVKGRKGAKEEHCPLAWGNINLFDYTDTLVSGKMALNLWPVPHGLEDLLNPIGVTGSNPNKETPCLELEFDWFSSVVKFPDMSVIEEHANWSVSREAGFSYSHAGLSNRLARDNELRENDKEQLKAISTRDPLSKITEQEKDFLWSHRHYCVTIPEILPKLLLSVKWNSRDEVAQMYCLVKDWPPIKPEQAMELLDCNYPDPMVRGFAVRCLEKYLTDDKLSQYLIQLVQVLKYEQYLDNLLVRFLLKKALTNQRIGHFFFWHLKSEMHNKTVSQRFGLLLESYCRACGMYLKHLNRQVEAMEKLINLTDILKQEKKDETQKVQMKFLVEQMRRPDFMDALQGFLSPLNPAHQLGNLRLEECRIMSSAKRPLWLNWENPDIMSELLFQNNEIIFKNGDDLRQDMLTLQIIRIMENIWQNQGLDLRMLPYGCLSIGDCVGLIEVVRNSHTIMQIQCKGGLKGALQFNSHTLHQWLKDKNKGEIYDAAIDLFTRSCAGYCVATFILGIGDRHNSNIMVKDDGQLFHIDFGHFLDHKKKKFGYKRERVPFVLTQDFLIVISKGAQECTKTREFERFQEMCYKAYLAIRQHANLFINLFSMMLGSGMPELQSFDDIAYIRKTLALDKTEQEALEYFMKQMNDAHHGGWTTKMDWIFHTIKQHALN
# Sequence of Cyclin-dependent kinase 7 (Homo sapiens) (P50613 whole entry): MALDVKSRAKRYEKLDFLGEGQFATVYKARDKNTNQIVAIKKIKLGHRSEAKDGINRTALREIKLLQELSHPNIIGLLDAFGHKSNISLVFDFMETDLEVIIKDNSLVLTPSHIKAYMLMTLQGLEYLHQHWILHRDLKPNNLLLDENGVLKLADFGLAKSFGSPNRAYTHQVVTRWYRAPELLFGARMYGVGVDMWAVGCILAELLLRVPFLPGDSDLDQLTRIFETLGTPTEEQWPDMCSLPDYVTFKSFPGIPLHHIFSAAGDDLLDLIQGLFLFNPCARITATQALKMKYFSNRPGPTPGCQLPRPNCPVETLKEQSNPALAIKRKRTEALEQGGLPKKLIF
# Sequence of Ribosomal protein S6 kinase alpha-3 (Homo sapiens) (P51812 whole entry): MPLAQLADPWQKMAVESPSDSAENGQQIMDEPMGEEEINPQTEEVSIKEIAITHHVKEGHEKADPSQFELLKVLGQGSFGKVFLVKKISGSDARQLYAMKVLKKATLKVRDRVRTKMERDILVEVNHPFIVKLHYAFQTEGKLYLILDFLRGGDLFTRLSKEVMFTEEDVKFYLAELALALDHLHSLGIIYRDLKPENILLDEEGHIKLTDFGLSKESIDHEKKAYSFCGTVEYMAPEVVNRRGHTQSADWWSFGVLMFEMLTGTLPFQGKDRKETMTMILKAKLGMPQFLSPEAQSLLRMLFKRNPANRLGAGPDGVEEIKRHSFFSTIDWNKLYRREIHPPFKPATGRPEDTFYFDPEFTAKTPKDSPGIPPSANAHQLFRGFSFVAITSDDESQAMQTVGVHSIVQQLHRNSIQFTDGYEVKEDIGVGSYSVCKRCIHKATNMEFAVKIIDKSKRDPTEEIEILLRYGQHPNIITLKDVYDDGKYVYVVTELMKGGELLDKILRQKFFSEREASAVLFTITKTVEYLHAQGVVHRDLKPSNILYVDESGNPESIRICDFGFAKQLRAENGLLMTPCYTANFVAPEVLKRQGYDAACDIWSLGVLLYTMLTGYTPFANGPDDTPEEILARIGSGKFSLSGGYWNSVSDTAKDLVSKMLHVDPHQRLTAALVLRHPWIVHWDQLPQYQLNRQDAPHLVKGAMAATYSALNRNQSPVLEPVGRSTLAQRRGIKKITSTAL
# Sequence of Tyrosine-protein kinase ABL1 (Homo sapiens) (P00519 whole entry): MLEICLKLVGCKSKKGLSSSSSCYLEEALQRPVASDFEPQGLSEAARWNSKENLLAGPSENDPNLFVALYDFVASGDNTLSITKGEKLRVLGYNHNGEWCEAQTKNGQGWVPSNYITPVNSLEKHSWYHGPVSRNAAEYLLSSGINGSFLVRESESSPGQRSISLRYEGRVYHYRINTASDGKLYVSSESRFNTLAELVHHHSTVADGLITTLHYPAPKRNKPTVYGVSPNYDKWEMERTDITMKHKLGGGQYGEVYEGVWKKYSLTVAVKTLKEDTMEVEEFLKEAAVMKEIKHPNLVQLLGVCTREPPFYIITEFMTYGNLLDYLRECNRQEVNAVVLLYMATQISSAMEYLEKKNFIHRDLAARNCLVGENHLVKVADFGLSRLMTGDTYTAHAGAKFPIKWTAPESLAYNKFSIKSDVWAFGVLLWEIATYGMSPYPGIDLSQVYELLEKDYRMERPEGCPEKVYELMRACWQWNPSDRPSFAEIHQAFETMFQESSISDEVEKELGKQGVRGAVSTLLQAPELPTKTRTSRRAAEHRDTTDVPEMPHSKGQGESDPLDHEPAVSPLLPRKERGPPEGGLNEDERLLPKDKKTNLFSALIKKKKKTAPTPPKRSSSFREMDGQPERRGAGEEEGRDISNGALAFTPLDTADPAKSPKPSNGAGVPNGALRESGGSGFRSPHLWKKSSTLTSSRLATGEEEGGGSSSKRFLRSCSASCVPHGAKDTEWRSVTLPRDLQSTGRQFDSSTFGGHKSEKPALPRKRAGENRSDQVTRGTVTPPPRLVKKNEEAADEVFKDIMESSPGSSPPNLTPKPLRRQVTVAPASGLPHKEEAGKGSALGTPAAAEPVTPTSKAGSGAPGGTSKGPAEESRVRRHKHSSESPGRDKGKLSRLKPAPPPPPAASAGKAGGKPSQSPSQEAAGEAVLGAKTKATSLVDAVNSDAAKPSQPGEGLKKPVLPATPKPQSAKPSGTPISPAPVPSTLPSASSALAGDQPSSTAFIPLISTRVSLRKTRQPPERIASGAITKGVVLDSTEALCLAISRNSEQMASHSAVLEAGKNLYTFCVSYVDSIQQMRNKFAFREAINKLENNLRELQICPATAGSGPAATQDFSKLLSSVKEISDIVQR
# Sequence of Serine/threonine-protein kinase 32B (Homo sapiens) (Q9NY57 whole entry): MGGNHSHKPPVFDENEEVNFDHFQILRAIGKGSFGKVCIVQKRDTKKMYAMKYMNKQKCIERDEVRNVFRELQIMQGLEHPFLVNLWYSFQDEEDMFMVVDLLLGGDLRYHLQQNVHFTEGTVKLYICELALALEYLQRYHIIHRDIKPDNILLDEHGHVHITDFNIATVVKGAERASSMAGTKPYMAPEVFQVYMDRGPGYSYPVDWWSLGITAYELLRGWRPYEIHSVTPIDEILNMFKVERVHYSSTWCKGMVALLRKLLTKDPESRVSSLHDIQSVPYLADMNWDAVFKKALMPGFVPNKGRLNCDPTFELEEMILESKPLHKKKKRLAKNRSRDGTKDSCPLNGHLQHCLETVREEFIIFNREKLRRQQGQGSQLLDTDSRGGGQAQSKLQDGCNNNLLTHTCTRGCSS
# Sequence of Phosphatidylinositol 4,5-bisphosphate 3-kinase catalytic subunit alpha isoform (Homo sapiens), P42336 [Q546K] (P42336 whole entry Q546K, canonical isoform): as the sequence (P42336 whole entry E542K, canonical isoform) above, with K542E, Q546K counted along it
SMILES,residual activity [1] [%],residual activity [2] [%],residual activity [3] [%],residual activity [4] [%],residual activity [5] [%],residual activity [6] [%],residual activity [7] [%],residual activity [8] [%],residual activity [9] [%],residual activity [10] [%],residual activity [11] [%],residual activity [12] [%],residual activity [13] [%],residual activity [14] [%],residual activity [15] [%],inhibition [16] [%],residual activity [17] [%],residual activity [18] [%],residual activity [19] [%],residual activity [20] [%],other results
CCC(=N\O)/C(C)=C/c1ccc(F)cc1 [A-079],100,97,75,87,100,60,75,74,78,97,87,91,74,61,64,19.5,90,78,100,100,residual activity [21]: 100%; residual activity [22]: 100%; residual activity [23]: 100%; residual activity [24]: 100%; residual activity [25]: 91%; residual activity [26]: 100%; residual activity [27]: 66%; residual activity [28]: 100%; residual activity [29]: 83%; residual activity [30]: 100%; residual activity [31]: 95%; residual activity [32]: 60%; residual activity [33]: 63%; residual activity [34]: 84%; residual activity [35]: 97%; residual activity [36]: 92%; residual activity [37]: 59%; inhibition [38]: 6.61%; inhibition [39]: -7.17%
CCC(=N\O)/C(C)=C/c1ccc(F)c(C)c1 [A-226],100,94,100,100,100,93,100,100,100,84,79,46,97,69,100,18.6,100,100,86,100,residual activity [21]: 80%; residual activity [22]: 54%; residual activity [23]: 100%; residual activity [24]: 92%; residual activity [25]: 100%; residual activity [26]: 89%; residual activity [27]: 100%; residual activity [28]: 99%; residual activity [29]: 67%; residual activity [30]: 100%; residual activity [31]: 100%; residual activity [32]: 100%; residual activity [33]: 100%; residual activity [34]: 100%; residual activity [35]: 100%; residual activity [36]: 55%; residual activity [37]: 71%; inhibition [38]: -1.29%; inhibition [39]: 2.53%
